In assay [1] the test system is pulmonary arterial smooth muscle cells. As to the kind of experiment: Suppression of proliferation of pulmonary arterial smooth muscle cells (PDGF-BB stimulation, BrdU). The class given is cell-based. To be noted: PASMC, 24 h; healthy human derived pulmonary arterial smooth muscle cells; human PDGF-BB 10 ng/mL stimulation; BrdU uptake after 1 day; test substance final concentration 3 to 10,000 nM; read-out: Human normal PASMC proliferation suppression (PDGF stimulation_IC50). In short, it runs like this:
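Test compound (final 3 to 10,000 nM) was added together with BrdU and PDGF-BB (final 10 ng/mL) to healthy human pulmonary artery smooth muscle cells held a day in 0.1% FBS. Proliferation was read after 1 day as anti-BrdU-detected BrdU incorporation.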

The target of another assay is PDGFR-β (Homo sapiens (Human), UniProt P09619). As to the kind of experiment: PDGFR-β tyrosine kinase inhibitory action (HTRF KinEASE-TK). The format is biochemical. As to conditions: PDGFR-β enzyme 1 ng/μL, 30° C. for 30 minutes; read-out: PDGF-β IC50. In short, it runs like this:
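Recombinant PDGFR-β at 1 ng/μL final with TK substrate-3-biotin in a substrate solution containing 0.6 μM ATP; buffer 50 mM HEPES pH 7.0, 5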

Structures are written as SMILES.

Sequence of PDGFR-β (P09619 33-1106): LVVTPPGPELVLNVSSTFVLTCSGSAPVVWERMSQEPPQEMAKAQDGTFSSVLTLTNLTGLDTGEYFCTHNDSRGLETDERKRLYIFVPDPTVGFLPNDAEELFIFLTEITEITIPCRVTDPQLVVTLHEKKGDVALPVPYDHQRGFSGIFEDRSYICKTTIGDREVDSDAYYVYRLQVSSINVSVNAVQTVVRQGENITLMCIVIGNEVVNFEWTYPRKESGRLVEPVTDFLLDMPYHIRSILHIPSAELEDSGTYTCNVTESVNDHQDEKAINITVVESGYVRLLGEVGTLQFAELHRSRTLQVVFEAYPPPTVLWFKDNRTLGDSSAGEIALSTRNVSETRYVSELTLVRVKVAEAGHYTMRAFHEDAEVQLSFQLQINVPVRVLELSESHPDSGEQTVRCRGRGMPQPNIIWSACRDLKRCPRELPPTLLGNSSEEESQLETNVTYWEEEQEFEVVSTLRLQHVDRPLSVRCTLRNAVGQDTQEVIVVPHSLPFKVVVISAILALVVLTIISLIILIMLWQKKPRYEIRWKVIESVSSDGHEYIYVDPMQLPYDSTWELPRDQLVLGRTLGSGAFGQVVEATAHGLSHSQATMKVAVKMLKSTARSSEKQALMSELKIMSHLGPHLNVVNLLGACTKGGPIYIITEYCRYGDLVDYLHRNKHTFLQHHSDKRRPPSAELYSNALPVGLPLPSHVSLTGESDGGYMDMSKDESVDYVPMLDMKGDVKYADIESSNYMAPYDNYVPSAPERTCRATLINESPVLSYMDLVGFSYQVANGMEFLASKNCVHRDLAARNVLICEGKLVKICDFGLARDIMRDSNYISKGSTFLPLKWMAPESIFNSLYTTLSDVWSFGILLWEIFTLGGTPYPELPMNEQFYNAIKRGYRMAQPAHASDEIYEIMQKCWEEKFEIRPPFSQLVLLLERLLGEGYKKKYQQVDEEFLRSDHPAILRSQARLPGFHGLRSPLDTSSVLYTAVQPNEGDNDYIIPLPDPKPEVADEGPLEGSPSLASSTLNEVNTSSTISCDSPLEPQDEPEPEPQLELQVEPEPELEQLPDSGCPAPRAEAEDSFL

Turning to `Cc1ccc(C(=O)N[C@H]2CCCC[C@@H]2O)cc1NCc1ccc(NC(=O)N(C)C2CC2)nc1` [Example 133, 3-{[(6-{[cyclopropyl(methyl)carbamoyl]amino}pyridin-3-yl)methyl]amino}-N-[(1S,2S)-2-hydroxycyclohexyl]-4-methylbenzamide], the figures for the IC50 (in assay [1]; on PDGFR-β) were 110 nM and 170 nM, respectively.
Turning to `Cc1ccc(C(=O)N[C@H]2CCCC[C@@H]2O)cc1NCc1cncc(-n2nccn2)c1` [Example 145, N-[(1S,2S)-2-hydroxycyclohexyl]-4-methyl-3-({[5-(2H-1,2,3-triazol-2-yl)pyridin-3-yl]methyl}amino)benzamide], the IC50 in assay [1] is 47 nM; on PDGFR-β, 100 nM.
With `Cc1ccc(C(=O)N[C@H]2CCCC[C@@H]2O)cc1NCc1ccc(NCC2CC2)nc1` [Example 117, 3-[({6-[(cyclopropylmethyl)amino]pyridin-3-yl}methyl)amino]-N-[(1S,2S)-2-hydroxycyclohexyl]-4-methylbenzamide], the results for the IC50 (in assay [1]; at PDGFR-β) were 230 nM and 79 nM, respectively.
Turning to `Cc1nc(N)ncc1/C(F)=C/c1cc(C(=O)N[C@H]2CCCC[C@@H]2O)ccc1F` [Example 204, 3-[(Z)-2-(2-amino-4-methylpyrimidin-5-yl)-2-fluoroethenyl]-4-fluoro-N-[(1S,2S)-2-hydroxycyclohexyl]benzamide], the IC50 in assay [1] worked out at 52 nM; at PDGFR-β, 21 nM.
As for `Cc1ccc(C(=O)N[C@H]2CCCC[C@@H]2O)cc1NCc1ccc(NC(=O)N2CCOCC2)nc1` [Example 127, N-{5-[(5-{[(1S,2S)-2-hydroxycyclohexyl]carbamoyl}-2-methylanilino)methyl]pyridin-2-yl}morpholine-4-carboxamide], the IC50 in assay [1] came to 45 nM; on PDGFR-β, 63 nM.
`O=C(N[C@H]1CCCC[C@@H]1O)c1ccc(F)c(/C=C(\F)c2cnc(NCC3CC3)nc2)c1` [Example 202, 3-[(Z)-2-{2-[(cyclopropylmethyl)amino]pyrimidin-5-yl}-2-fluoroethenyl]-4-fluoro-N-[(1S,2S)-2-hydroxycyclohexyl]benzamide]: the results for the IC50 (in assay [1]; at PDGFR-β) were 33 nM and 77 nM, respectively.
For the compound `Cc1ccc(C(=O)N[C@H]2CCCC[C@@H]2O)cc1NCc1cnc(N[C@H]2CCOC2)nc1` [Example 136, N-[(1S,2S)-2-hydroxycyclohexyl]-4-methyl-3-{[(2-{[(3S)-oxolan-3-yl]amino}pyrimidin-5-yl)methyl]amino}benzamide], the IC50 was determined as 150 nM in assay [1] and 32 nM at PDGFR-β.
Take `O=C(N[C@H]1CCCC[C@@H]1O)c1cccc(CNc2cncc(-c3ncccn3)c2)c1` [Example 150, N-[(1S,2S)-2-hydroxycyclohexyl]-3-({[5-(pyrimidin-2-yl)pyridin-3-yl]amino}methyl)benzamide]: the values for the IC50 (in assay [1]; on PDGFR-β) were 300 nM and 360 nM, respectively.
`Cc1ncc(C(=O)N[C@H]2CCCC[C@@H]2O)cc1/C=C(\F)c1cncc(-c2ccccn2)c1` [Example 180, 5-[(Z)-2-([2,3′-bipyridin]-5′-yl)-2-fluoroethenyl]-N-[(1S,2S)-2-hydroxycyclohexyl]-6-methylpyridine-3-carboxamide]: the IC50 was 32 nM in assay [1] and 16 nM on PDGFR-β.
On the same counts, the results for `O=C(Nc1cc(C(=O)N[C@H]2CCCC[C@@H]2O)ccc1F)c1cncc(OCC2CC2)c1` [Example 56, 5-(cyclopropylmethoxy)-N-(2-fluoro-5-{[(1S,2S)-2-hydroxycyclohexyl]carbamoyl}phenyl)pyridine-3-carboxamide] are 240 nM and 120 nM.
The like results for `Cc1ccc(C(=O)N[C@H]2CCCC[C@@H]2O)cc1C#Cc1cncc(Br)n1` [Example 74, 3-[(6-bromopyrazin-2-yl)ethynyl]-N-[(1S,2S)-2-hydroxycyclohexyl]-4-methylbenzamide] were, in that order, 18 nM and 180 nM.
With `Cc1ccc(C(=O)N[C@H]2c3ccccc3C[C@@H]2O)cc1/C=C(\F)c1cncc(CN2CCN(C)CC2)c1` [Example 200, 3-[(Z)-2-fluoro-2-{5-[(4-methylpiperazin-1-yl)methyl]pyridin-3-yl}ethenyl]-N-[(1S,2S)-2-hydroxy-2,3-dihydro-1H-inden-1-yl]-4-methylbenzamide], the results for the IC50 (in assay [1]; at PDGFR-β) were 120 nM and 16 nM, respectively.
As to `Cc1ncc(C(=O)N[C@H]2CCCC[C@@H]2O)cc1C#Cc1cncc(C2CC2)c1` [Example 73, 5-[(5-cyclopropylpyridin-3-yl)ethynyl]-N-[(1S,2S)-2-hydroxycyclohexyl]-6-methylpyridine-3-carboxamide], the IC50 in assay [1] stood at 80 nM; on PDGFR-β, 220 nM.
Turning to `Cc1ncc(C(=O)N[C@H]2CCCC[C@@H]2O)cc1/C=C(\F)c1cncc(OCC2CC2)c1` [Example 187, 5-{(Z)-2-[5-(cyclopropylmethoxy)pyridin-3-yl]-2-fluoroethenyl}-N-[(1S,2S)-2-hydroxycyclohexyl]-6-methylpyridine-3-carboxamide], the IC50 in assay [1] turned out to be 20 nM; at PDGFR-β it was 14 nM.
`O=C(N[C@H]1CCCC[C@@H]1O)c1ccc(Cl)c(OCc2cncc(-c3ncccn3)c2)c1` [Example 167, 4-chloro-N-[(1S,2S)-2-hydroxycyclohexyl]-3-{[5-(pyrimidin-2-yl)pyridin-3-yl]methoxy}benzamide]: the IC50 (in assay [1]; on PDGFR-β) was 210 nM throughout.
For the compound `Cc1ccc(C(=O)N[C@H]2CCCC[C@@H]2O)cc1NCc1cnc(Nc2ccccn2)nc1` [Example 126, N-[(1S,2S)-2-hydroxycyclohexyl]-4-methyl-3-[({2-[(pyridin-2-yl)amino]pyrimidin-5-yl}methyl)amino]benzamide], the IC50 was determined as 64 nM in assay [1] and 45 nM at PDGFR-β.
Take `Cc1ccc(C(=O)N[C@H]2CCCC[C@@H]2O)cc1NCc1cnn2cccnc12` [Example 119, N-[(1S,2S)-2-hydroxycyclohexyl]-4-methyl-3-{[(pyrazolo[1,5-a]pyrimidin-3-yl)methyl]amino}benzamide]: the IC50 in assay [1] worked out at 93 nM; on PDGFR-β it was 330 nM.
As to `Cc1ncc(C(=O)N[C@H]2CCCC[C@@H]2O)cc1/C=C(\F)c1ccc(NCC2CC2)nc1` [Example 199, 5-[(Z)-2-{6-[(cyclopropylmethyl)amino]pyridin-3-yl}-2-fluoroethenyl]-N-[(1S,2S)-2-hydroxycyclohexyl]-6-methylpyridine-3-carboxamide], the IC50 was 70 nM in assay [1] and 52 nM at PDGFR-β.
As for `Cc1ccc(C(=O)N[C@H]2CCCC[C@@H]2O)cc1/C=C(\F)c1cncc(NCCN(C)C)c1` [Example 198, 3-[(Z)-2-(5-{[2-(dimethylamino)ethyl]amino}pyridin-3-yl)-2-fluoroethenyl]-N-[(1S,2S)-2-hydroxycyclohexyl]-4-methylbenzamide], the IC50 amounted to 39 nM in assay [1] and 7.2 nM at PDGFR-β.
Consider `Cc1ccc(C(=O)N[C@H]2CCCC[C@@H]2O)cc1NCc1ccc(NC2COC2)nc1` [Example 141, N-[(1S,2S)-2-hydroxycyclohexyl]-4-methyl-3-[({6-[(oxetan-3-yl)amino]pyridin-3-yl}methyl)amino]benzamide], for which the IC50 in assay [1] is 190 nM; at PDGFR-β, 69 nM.
In the case of `Nc1ncc(/C(F)=C/c2cc(C(=O)N[C@H]3CCCC[C@@H]3O)ccc2F)cn1` [Example 192, 3-[(Z)-2-(2-aminopyrimidin-5-yl)-2-fluoroethenyl]-4-fluoro-N-[(1S,2S)-2-hydroxycyclohexyl]benzamide], the IC50 was 24 nM in assay [1] and 29 nM on PDGFR-β.
`Cc1ncc(C(=O)N[C@H]2CCCC[C@@H]2O)cc1/C=C(\F)c1ccc(N)nc1` [Example 189, 5-[(Z)-2-(6-aminopyridin-3-yl)-2-fluoroethenyl]-N-[(1S,2S)-2-hydroxycyclohexyl]-6-methylpyridine-3-carboxamide]: the values for the IC50 (in assay [1]; on PDGFR-β) were 90 nM and 200 nM, respectively.
Consider `O=C(N[C@H]1CCCC[C@@H]1O)c1ccc(F)c(CNc2cncc(-c3ncccn3)c2)c1` [Example 151, 4-fluoro-N-[(1S,2S)-2-hydroxycyclohexyl]-3-({[5-(pyrimidin-2-yl)pyridin-3-yl]amino}methyl)benzamide], for which the IC50 in assay [1] is 250 nM; on PDGFR-β, 170 nM.
As for `Cc1ccc(C(=O)N[C@H]2CCCC[C@@H]2O)cc1NCc1cnc(-c2ccccc2)nc1` [Example 121, N-[(1S,2S)-2-hydroxycyclohexyl]-4-methyl-3-{[(2-phenylpyrimidin-5-yl)methyl]amino}benzamide], the IC50 in assay [1] came out at 300 nM; on PDGFR-β, 160 nM.
On to `CNc1ncc(/C(F)=C/c2cc(C(=O)N[C@H]3CCCC[C@@H]3O)ccc2F)cn1` [Example 205, 4-fluoro-3-{(Z)-2-fluoro-2-[2-(methylamino)pyrimidin-5-yl]ethenyl}-N-[(1S,2S)-2-hydroxycyclohexyl]benzamide], for which the IC50 in assay [1] stood at 160 nM; at PDGFR-β it was 130 nM.
For `Cc1ncc(C(=O)N[C@H]2CCCC[C@@H]2O)cc1/C=C(\F)c1cncc(NC2COC2)c1` [Example 195, 5-[(Z)-2-fluoro-2-{5-[(oxetan-3-yl)amino]pyridin-3-yl}ethenyl]-N-[(1S,2S)-2-hydroxycyclohexyl]-6-methylpyridine-3-carboxamide], the IC50 in assay [1] was determined as 26 nM; on PDGFR-β, 19 nM.
In the case of `Cc1ccc(C(=O)N[C@H]2CCCC[C@@H]2O)cc1NCc1ccc(NC(=O)Nc2cccnc2)nc1` [Example 129, N-[(1S,2S)-2-hydroxycyclohexyl]-4-methyl-3-{[(6-{[(pyridin-3-yl)carbamoyl]amino}pyridin-3-yl)methyl]amino}benzamide], the figures for the IC50 (in assay [1]; at PDGFR-β) were 20 nM and 17 nM, respectively.

These data come from US12509424B2, “Compound and composition as PDGF receptor kinase inhibitor” (NIPPON SHINYAKU CO., LTD., priority 2019, dated 2025).
